Assay results published in patent publication US7172871B1, “Methods and compositions for modulating axonal outgrowth of central nervous system neurons” (Children's Medical Center Corporation, priority 2000, dated 2007).

System: N-kinase
Experiment: in-gel kinase method (histone HF-1 substrate, [32P]-ATP)
Format: biochemical
Settings: in-gel kinase assay, [32P]-ATP plus Mn2+, with or without 6-TG present; bovine brain fractions
Description: During the purification process, kinase activity was monitored using an in-gel kinase method. In this method, a histone HF-1 substrate protein is polymerized into a 10% polyacrylamide gel before the samples to be analyzed are electrophoresed in the gel. Following completion of the electrophoresis, proteins are partially renatured with guanidium isothiocyanate and incubated in the presence [^32P]-ATP plus Mn^2+, with or without 6-TG present. (Activation by Mn^2+, but not by Mg^2+ or Ca^2+, is a distinctive property of N-kinase). The purification of the kinase was monitored by looking for a 6-TG-inhibitable radioactive band corresponding to the site where the kinase phosphorylates the HF-1 substrate in the gel.

inhibition of N-kinase HF-1-phosphorylating activity: inhibitable
Compound: Nc1nc2nc[nH]c2c(=S)[nH]1 [6-TG, 6-thioguanine]
